The source made the active and inactive calls. No cut-off for these calls is given here.

The subject of data set [1] is T-24. Kind of data set: Inhibition of colony formation in human T24 cells upto 5 uM incubated for 24 hrs and measured for 10 days. The format is functional. Particulars: up to 5 µM.
For data set [2], the system named is T-24. In words: Induction of DNA damage in human T24 cells assessed as increase in gamma H2AX phosphorylation at 10 uM incubated for 24 hrs by Hoechst33258 staining based immunofluorescence assay. The format is functional, cell-based.
Data set [3] relates to T-24. In words: Induction of mitochondrial mediated apoptosis in human T24 cells assessed as upregulation of cytochrome c expression at 10 to 15 uM incubated for 24 hrs by Western blotting analysis. The format is functional, cell-based. The note with it: dose 10-15 µM. For orientation: Immunoblotting shows a protein as a band on a membrane.
For data set [4], the system named is T-24. Kind of data set: Induction of mitochondrial ROS generation in human T24 cells at 10 uM measured after 24 hrs by DCFH-DA staining based confocal microscopy method. The format is functional, cell-based.
For data set [5], the system named is T-24. In words: Induction of apoptosis in human T24 cells assessed as viable cells at 10 uM incubated for 24 hrs by Annexin-V/PI staining based flow cytometry analysis (reference value: 94.3 %). The format is functional. Particulars: read-out: Activity. (In general: A flow cytometer gives signals particle by particle.)
Data set [6] concerns T-24. In words: Induction of apoptosis in human T24 cells assessed as necrotic cells at 15 uM incubated for 24 hrs by Annexin-V/PI staining based flow cytometry analysis (reference value: 1.92 %). The format is functional.
For data set [7], the system named is T-24. Kind of data set: Induction of apoptosis in human T24 cells assessed as early apoptotic cells at 20 uM incubated for 24 hrs by Annexin-V/PI staining based flow cytometry analysis (reference value: 3.27 %). The format is functional.
In data set [8] the test system is T-24. In words: Inhibition of colony formation in human T24 cells 0.2 to 10 uM incubated for 24 hrs and measured for 10 days. The format is functional, cell-based. The note with it: dose 0.2-10 µM.
The subject of data set [9] is T-24. Kind of data set: Induction of mitochondrial membrane potential dysfunction in human T24 cells assessed as mitochondrial fragment condensation at 10 to 15 uM by mito-tracker green dye based fluorescence microscopy. The format is functional, cell-based. The note with it: dose 10-15 µM.
Data set [10] in a line: Toxicity in human WI-38 cells assessed as wound closure at 1 uM measured after 24 hrs by fluorescence microscopy based wound healing assay. The format is cell-based. Particulars: wi-38, 24 h.
Data set [11] has as its system T-24. Kind of data set: Induction of cell cycle arrest in human T24 cells assessed as upregulation of Cyclin E expression at 2 to 4 uM incubated for 24 hrs by chemiluminescence based Western blotting analysis. The format is functional. Particulars: dose 2-4 µM.
Data set [12] has as its system T-24. Kind of data set: Induction of mitochondrial membrane potential dysfunction in human T24 cells assessed as change in morphology at 2 to 4 uM by Mitotracker green dye based fluorescence microscopy. The format is functional, cell-based. The note with it: dose 2-4 µM.
Data set [13] deals with T-24. In words: Induction of mitochondrial mediated apoptosis in human T24 cells assessed as upregulation of cytochrome c expression at 2 to 4 uM incubated for 24 hrs by Western blotting analysis. The note with it: dose 2-4 µM. The format is functional, cell-based.
Data set [14] concerns T-24. Kind of data set: Induction of mitochondrial ROS generation in human T24 cells at 2 uM measured after 24 hrs by DCFH-DA staining based confocal microscopy method. The format is functional, cell-based.
In data set [15] the test system is T-24. In words: Induction of apoptosis in human T24 cells assessed as increase in caspase 3 activity at 2 uM (Rvb= 3.1%). The format is functional.
Data set [16] concerns T-24. In words: Induction of apoptosis in human T24 cells assessed as increase in caspase 9 activity at 2uM (Rvb= 7.2%). The format is functional.
Data set [17] has as its system T-24. Kind of data set: Induction of cell cycle arrest in human T24 cells assessed as accumulation of cells at G2/M phase at 2 uM incubated for 24 hrs by propidium iodide/RNase A staining based flow cytometry analysis (reference value: 5.82 %). The format is functional.
For data set [18], the system named is T-24. In words: Induction of cell cycle arrest in human T24 cells assessed as accumulation of cells at S phase at 2 uM incubated for 24 hrs by propidium iodide/RNase A staining based flow cytometry analysis (reference value: 42.47 %). The format is functional.
Data set [19] has as its system T-24. Kind of data set: Induction of cell cycle arrest in human T24 cells assessed as accumulation of cells at G2/M phase at 4 uM incubated for 24 hrs by propidium iodide/RNase A staining based flow cytometry analysis (reference value: 5.82 %). The format is functional.
For data set [20], the system named is T-24. Kind of data set: Induction of apoptosis in human T24 cells assessed as necrotic cells at 4 uM incubated for 24 hrs by Annexin-V/PI staining based flow cytometry analysis (reference value: 1.92 %). The format is functional.
For data set [21], the system named is T-24. Kind of data set: Induction of apoptosis in human T24 cells assessed as necrotic cells at 6 uM incubated for 24 hrs by Annexin-V/PI staining based flow cytometry analysis (reference value: 1.92 %). The format is functional.
Data set [22] has as its system T-24. In words: Inhibition of colony formation in human T24 cells at 0.16 uM incubated for 24 hrs and measured for 10 days. The format is functional, cell-based.
Data set [23] relates to T-24. Kind of data set: Induction of mitochondrial membrane potential dysfunction in human T24 cells assessed as increase in fragmentation at 2 uM incubated for 24 hrs by TEM analysis. The format is functional, cell-based.
Data set [24] concerns T-24. Kind of data set: Induction of DNA damage in human T24 cells assessed as increase in gamma H2AX expression at 0.5 to 1 uM incubated for 24 hrs by Western blot analysis. The note with it: dose 0.5-1 µM. The format is functional, cell-based.
A short description of data set [25]: Toxicity in human WI-38 cells assessed as wound closure at 0.25 uM measured after 24 hrs by fluorescence microscopy based wound healing assay. The format is cell-based. The note with it: wi-38, 24 h.
The subject of data set [26] is T-24. Kind of data set: Induction of mitochondrial mediated apoptosis in human T24 cells assessed as increase in Bak protein expression at 0.5 to 1 uM incubated for 24 hrs by Western blotting analysis. Particulars: dose 0.5-1 µM. The format is functional, cell-based.
Data set [27] has as its system T-24. Kind of data set: Induction of mitochondrial mediated apoptosis in human T24 cells assessed as upregulation of apaf-1 expression at 0.5 to 1 uM incubated for 24 hrs by Western blotting analysis. The format is functional, cell-based. The note with it: dose 0.5-1 µM.
In data set [28] the test system is T-24. In words: Induction of ROS accumulation in human T24 cells assessed as increase in intracellular ROS level at 0.5 uM by […] based flow cytometry. The format is functional, cell-based.
Data set [29] relates to T-24. In words: Induction of apoptosis in human T24 cells assessed as increase in caspase 3 activity at 0.5 uM (Rvb= 3.1%). The format is functional.
The subject of data set [30] is T-24. In words: Induction of cell cycle arrest in human T24 cells assessed as accumulation of cells at G2/M phase at 0.5 uM incubated for 24 hrs by propidium iodide/RNase A staining based flow cytometry analysis (reference value: 5.82 %). The format is functional.
Data set [31] deals with T-24. In words: Induction of cell cycle arrest in human T24 cells assessed as accumulation of cells at S phase at 1 uM incubated for 24 hrs by propidium iodide/RNase A staining based flow cytometry analysis (reference value: 42.47 %). The format is functional.
For data set [32], the system named is T-24. In words: Induction of apoptosis in human T24 cells assessed as early apoptotic cells at 0.5 uM incubated for 24 hrs by Annexin-V/PI staining based flow cytometry analysis (reference value: 3.27 %). The format is functional.
Data set [33] has as its system T-24. In words: Induction of apoptosis in human T24 cells assessed as viable cells at 0.5 uM incubated for 24 hrs by Annexin-V/PI staining based flow cytometry analysis (reference value: 94.3 %). The note with it: read-out: Activity. The format is functional.
Data set [34] has as its system T-24. In words: Induction of apoptosis in human T24 cells assessed as viable cells at 1 uM incubated for 24 hrs by Annexin-V/PI staining based flow cytometry analysis (reference value: 94.3 %). The note with it: read-out: Activity. The format is functional.
Data set [35] deals with T-24. In words: Cytotoxicity against human T24 cells assessed as decrease in cell viability at 0.5 uM by MTT assay. The format is functional, cell-based. The note with it: TDE = time-dependent effect. Background: Tetrazolium dyes change colour on reduction, which living cells bring about.
Data set [36] has as its system T-24. Kind of data set: Induction of mitochondrial membrane potential dysfunction in human T24 cells assessed as nuclear condensation at 0.5 to 1 uM by mito-tracker green dye based fluorescence microscopy. The format is functional, cell-based. Particulars: dose 0.5-1 µM.
In data set [37] the test system is T-24. Kind of data set: Induction of mitochondrial membrane potential dysfunction in human T24 cells assessed as increase in fragmentation at 0.5 uM incubated for 24 hrs by TEM analysis. The format is functional, cell-based.

Take `O=C1c2ccccc2-c2cccc3ccnc1c23`: the “inhibition (INH)” value in the data set with T-24 [1] turned out to be 100%. Also, the result in the data set on T-24 [2], in the data set with T-24 [3], in the data set on T-24 [4] and in the data set on T-24 [9] was Active. The viability at 10 µM in the data set on T-24 [5] was 79.1%. The Activity with T-24 [6] came out at 2.44%; in the data set on T-24 [7] it was 36.6%. In addition, in the data set on T-24 [8], the inhibition entry is “Active”.
In the case of `O=C1c2cc([N+](=O)[O-])ccc2-c2ccc([N+](=O)[O-])c3ccnc1c23`, the Activity result in data set [10] is on record as “Non-Toxic”; with T-24 [15], 24.6%; in the data set with T-24 [16] it was 27.5%; with T-24 [17], 33.02%; in the data set on T-24 [18], 66.71%; in the data set with T-24 [19] it was 14.18%. The results for the Activity with T-24 [20] and in the data set with T-24 [21] were 2.8% and 3.14%, respectively. The result with T-24 [11], in the data set on T-24 [12], with T-24 [13], in the data set on T-24 [14] and in the data set with T-24 [23] was Active. Further, the inhibition result in the data set on T-24 [22] is “Active”.
In the case of `O=C1c2ccccc2-c2ccc([N+](=O)[O-])c3ccnc1c23`, the result with T-24 [24], in the data set with T-24 [26], in the data set on T-24 [27], in the data set on T-24 [28], in the data set with T-24 [36] and in the data set with T-24 [37] was Active. In addition, the Activity result in data set [25] is “Non-Toxic”; with T-24 [29], 30.6%; in the data set on T-24 [30], 52.05%; in the data set with T-24 [31], 35.21%; in the data set on T-24 [32], 35.3%; with T-24 [35], “Tde”. Further, the viability at 0.5 µM in the data set on T-24 [33] came to 58.1%. Besides, the viability at 1 µM in the data set on T-24 [34] was 52.6%.
